Consider 18 compounds from patent US20170022171A1, “2,5-DISUBSTITUTED CYCLOPENTANECARBOXYLIC ACIDS AND THEIR USE” (Bayer Pharma Aktiengesellschaft, priority 2014, published 2017).

What is called IC50 is the concentration that inhibits the measured activity by half. Read a high IC50 as weaker potency in that assay.

T1 sequence (P39900 106-470): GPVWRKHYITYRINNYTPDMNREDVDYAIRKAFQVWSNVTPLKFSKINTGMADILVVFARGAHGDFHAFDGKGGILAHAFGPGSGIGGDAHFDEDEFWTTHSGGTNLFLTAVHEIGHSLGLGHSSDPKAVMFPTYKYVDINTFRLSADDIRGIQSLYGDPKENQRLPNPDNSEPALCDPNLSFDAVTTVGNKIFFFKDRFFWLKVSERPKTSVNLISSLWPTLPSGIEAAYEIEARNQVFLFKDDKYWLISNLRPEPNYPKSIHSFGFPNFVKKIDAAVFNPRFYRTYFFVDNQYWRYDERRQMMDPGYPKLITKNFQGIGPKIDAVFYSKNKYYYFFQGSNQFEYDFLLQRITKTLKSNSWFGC

The test concerns the target T1, human macrophage elastase (HME/hMMP-12) (Homo sapiens, UniProt P39900).
T1 construct: 0.5 nM HME; purchased R&D Systems 917-MP
Nature of the test: In vitro HME inhibition test (standard or high-sensitivity). The class given is biochemical. Particulars: in some cases mean values. How it is done: The potency of the compounds according to the invention with respect to HME (MMP-12) is determined in an in vitro inhibition test. The HME-mediated amidolytic cleavage of a suitable peptide substrate leads to an increase in fluorescent light therein. The signal intensity of the fluorescent light is directly proportional to the enzyme activity. The active concentration of a test compound at which half the enzyme is inhibited (50% signal intensity of the fluorescent light) is reported as the IC50 value.
In a 384 hole microtiter plate, in a total test volume of 41 the test buffer (0.1 M HEPES pH 7.4, 0.15 M NaCl, 0.03 M CaCl2, 0.004 mM ZnCl2, 0.02 M EDTA, 0.005% Brij®), the enzyme (0.5 nM HME; from R&D Systems, 917-MP, autocatalytic activation according to the manufacturer's instructions) and the intramolecularly quenched substrate [5 μM Mca-Pro-Leu-Gly-Leu-Glu-Glu-Ala-Dap(Dnp)-NH2; Bachem, M-2670] are incubated in the absence and presence of the test substance (as a solution in DMSO) at 37° C. for two hours. The fluorescence intensity of the test mixtures is measured (excitation […], emission 393 nm). The IC50 values are ascertained by plotting the fluorescent light intensity against the active ingredient concentration.
In this case, an enzyme concentration ten times lower is used (final concentration, for example, 0.05 nM) in order to achieve an elevated test sensitivity. The incubation period chosen for the test is correspondingly longer (for example 16 hours).
On to `O=C(O)[C@@H]1[C@@H](Cn2nnc3ccc(C(F)(F)F)cc3c2=O)CC[C@H]1C(=O)c1ccc(OCC2CCC2)cc1` (single isomer, unassigned) [Example 47, (+)-(1RS,2RS,5SR)-2-[4-(Cyclobutylmethoxy)benzoyl]-5-{[4-oxo-6-(trifluoromethyl)-1,2,3-benzotriazin-3(4H)-yl]methyl}cyclopentanecarboxylic acid], for which the IC50 came to 0.025 nM.

In the case of `CCCCCOc1ccc(C(=O)[C@@H]2CC[C@H](Cn3nnc4ccccc4c3=O)[C@H]2C(=O)O)cc1` (single isomer, unassigned) [Example 9, (−)-(1RS,2SR,5RS)-2-[(4-Oxo-1,2,3-benzotriazin-3(4H)-yl)methyl]-5-[4-(pentyloxy)benzoyl]cyclopentanecarboxylic acid], the IC50 worked out at 145 nM.

On to `CCCCCSc1ccc(C(=O)[C@@H]2CC[C@H](Cn3nnc4ccc(C(F)(F)F)cc4c3=O)[C@H]2C(=O)O)cc1` (single isomer, unassigned) [Example 90, (−)-(1RS,2SR,5RS)-2-{[4-Oxo-6-(trifluoromethyl)-1,2,3-benzotriazin-3(4H)-yl]methyl}-5-[4-(pentylsulphanyl)benzoyl]cyclopentanecarboxylic acid], for which the IC50 turned out to be 1.1 nM.

`Cc1ccc2nnn(C[C@@H]3CC[C@H](C(=O)c4ccc(OCC5CCCC5)cc4)[C@H]3C(=O)O)c(=O)c2c1` (racemic) [Example 119, (+/−)-(1RS,2RS,5SR)-2-[4-(Cyclopentylmethoxy)benzoyl]-5-[(6-methyl-4-oxo-1,2,3-benzotriazin-3(4H)-yl)methyl]cyclopentanecarboxylic acid] came in with an IC50 of 0.048 nM.

Compound `O=C(O)[C@H]1[C@H](Cn2nnc3ccc(C(F)(F)F)cc3c2=O)CC[C@@H]1C(=O)c1ccc(OCC2CC2)cc1` (racemic) [Example 49, (+/−)-(1RS,2RS,5SR)-2-[4-(Cyclopropylmethoxy)benzoyl]-5-{[4-oxo-6-(trifluoromethyl)-1,2,3-benzotriazin-3(4H)-yl]methyl}cyclopentanecarboxylic acid] yielded an IC50 of 0.14 nM.

`O=C(O)[C@H]1[C@H](Cn2nnc3ccc(C(F)(F)F)cc3c2=O)CC[C@@H]1C(=O)c1ccc(OCCC2CCCC2)cc1` (racemic) [Example 53, (+/−)-(1RS,2RS,5SR)-2-[4-(2-Cyclopentylethoxy)benzoyl]-5-{[4-oxo-6-(trifluoromethyl)-1,2,3-benzotriazin-3(4H)-yl]methyl}cyclopentanecarboxylic acid] yielded an IC50 of 0.027 nM.

For the compound `CCCOc1ccc(C(=O)[C@@H]2CC[C@H](Cn3nnc4ccc(C(F)(F)F)cc4c3=O)[C@H]2C(=O)O)cc1` (single isomer, unassigned) [Example 71, (−)-(1RS,2SR,5RS)-2-{[4-Oxo-6-(trifluoromethyl)-1,2,3-benzotriazin-3(4H)-yl]methyl}-5-(4-propoxybenzoyl)cyclopentanecarboxylic acid], the IC50 was found to be 2.7 nM.

`CCCCCOc1ccc(C(=O)[C@@H]2CC[C@H](Cn3nnc4ccccc4c3=O)[C@H]2C(=O)O)cc1` (single isomer, unassigned) [Example 8, (+)-(1RS,2SR,5RS)-2-[(4-Oxo-1,2,3-benzotriazin-3(4H)-yl)methyl]-5-[4-(pentyloxy)benzoyl]cyclopentanecarboxylic acid] showed an IC50 of 0.21 nM.

`O=C(O)[C@@H]1[C@@H](Cn2nnc3ccc(C(F)(F)F)cc3c2=O)CC[C@H]1C(=O)c1ccc(OCC2CCCCC2)cc1` (single isomer, unassigned) [Example 42, (−)-(1RS,2RS,5SR)-2-[4-(Cyclohexylmethoxy)benzoyl]-5-{[4-oxo-6-(trifluoromethyl)-1,2,3-benzotriazin-3(4H)-yl]methyl}cyclopentanecarboxylic acid] returned an IC50 of 39 nM.

In turn, `O=C(O)[C@H]1[C@H](Cn2nnc3ccc(C(F)(F)F)cc3c2=O)CC[C@@H]1C(=O)c1ccc(SCc2ccccc2)cc1` (racemic) [Example 73, (+/−)-(1RS,2RS,5SR)-2-[4-(Benzylsulphanyl)benzoyl]-5-{[4-oxo-6-(trifluoromethyl)-1,2,3-benzotriazin-3(4H)-yl]methyl}cyclopentanecarboxylic acid] displayed an IC50 of 0.17 nM.

`Cc1ccc2nnn(C[C@@H]3CC[C@H](C(=O)c4ccc(OCCc5ccccc5)cc4)[C@H]3C(=O)O)c(=O)c2c1` (racemic) [Example 112, (+/−)-(1RS,2SR,5RS)-2-[(6-Methyl-4-oxo-1,2,3-benzotriazin-3(4H)-yl)methyl]-5-[4-(2-phenylethoxy)benzoyl]cyclopentanecarboxylic acid] showed an IC50 of 0.66 nM.

Compound `Cc1ccc2nnn(C[C@H]3CC[C@@H](C(=O)c4ccc(OCc5cccc(OC(F)(F)F)c5)cc4)[C@@H]3C(=O)O)c(=O)c2c1` (single isomer, unassigned) [Example 111, (−)-(1RS,2SR,5RS)-2-[(6-Methyl-4-oxo-1,2,3-benzotriazin-3(4H)-yl)methyl]-5-(4-{[3-(trifluoromethoxy)benzyl]oxy}benzoyl)cyclopentanecarboxylic acid] gave an IC50 of 140 nM.

Compound `O=C(O)[C@H]1[C@H](Cn2nnc3ccc(C(F)(F)F)cc3c2=O)CC[C@@H]1C(=O)c1ccc(OCc2ccc(Cl)c(Cl)c2)cc1` (racemic) [Example 27, (+/−)-(1RS,2RS,5SR)-2-{4-[(3,4-Dichlorobenzyl)oxy]benzoyl}-5-{[4-oxo-6-(trifluoromethyl)-1,2,3-benzotriazin-3(4H)-yl]methyl}cyclopentanecarboxylic acid] yielded an IC50 of 0.032 nM.

Consider `CCCCCOc1ccc(C(=O)[C@@H]2CC[C@H](Cn3nnc4ccc(C(F)(F)F)cc4c3=O)[C@H]2C(=O)O)cc1` (single isomer, unassigned) [Example 64, (+)-(1RS,2SR,5RS)-2-{[4-Oxo-6-(trifluoromethyl)-1,2,3-benzotriazin-3(4H)-yl]methyl}-5-[4-(pentyloxy)benzoyl]cyclopentanecarboxylic acid], for which the IC50 was 0.068 nM.

Take `O=C(O)[C@H]1[C@H](Cn2nnc3ccc(C(F)(F)F)cc3c2=O)CC[C@@H]1C(=O)c1ccc(OCc2cccc(Cl)c2)cc1` (racemic) [Example 21, (+/−)-(1RS,2RS,5SR)-2-{4-[(3-Chlorobenzyl)oxy]benzoyl}-5-{[4-oxo-6-(trifluoromethyl)-1,2,3-benzotriazin-3(4H)-yl]methyl}cyclopentanecarboxylic acid]: half-maximal inhibition (IC50) was put at 0.045 nM.

As for `Cc1ccc2nnn(C[C@H]3CC[C@@H](C(=O)c4ccc(OCc5ccc(F)cc5)cc4)[C@@H]3C(=O)O)c(=O)c2c1` (single isomer, unassigned) [Example 96, (−)-(1RS,2RS,5SR)-2-{4-[(4-Fluorobenzyl)oxy]benzoyl}-5-[(6-methyl-4-oxo-1,2,3-benzotriazin-3(4H)-yl)methyl]cyclopentanecarboxylic acid], 120 nM corresponded to half-maximal inhibition (IC50).

Turning to “(−)-(1RS,2RS,5SR)-2-{4-[(3,4-Dichlorobenzyl)oxy]benzoyl}-5-{[4-oxo-6-(trifluoromethyl)-1,2,3-benzotriazin-3(4H)-yl]methyl}cyclopentanecarboxylic acid [Example 29]”, the IC50 was 4.1 nM.

With `CCCCOc1ccc(C(=O)[C@@H]2CC[C@H](Cn3nnc4ccc(C(F)(F)F)cc4c3=O)[C@H]2C(=O)O)cc1` (single isomer, unassigned) [Example 68, (−)-(1RS,2RS,5SR)-2-(4-Butoxybenzoyl)-5-{[4-oxo-6-(trifluoromethyl)-1,2,3-benzotriazin-3(4H)-yl]methyl}cyclopentanecarboxylic acid], half-maximal inhibition (IC50) required 2.1 nM.
